Results reported in patent US20150010630A1, “FUNCTIONALIZATION OF BIOMATERIALS TO CONTROL REGENERATION AND INFLAMMATION RESPONSES” (TRUSTEES OF TUFTS COLLEGE, priority 2011, published 2015).
Read-outs that look alike come from different tables or passages of the source.

How the values were obtained:
THP1 macrophages [1] = assay: RT-PCR gene expression (TNF-α, TGF-β, IL-10) of THP1 macrophages on SP1 particles
THP1 macrophages [2] = assay: TNF-α release (ELISA) from THP1 macrophages seeded on SP1 particles, LPS plus drug; type: cell-based, human
Description: To assess inflammatory response, a large screen of cytokines and chemokines expressed and produced by THP1 differentiated cells and primary Mφs and DCs were analyzed. Their production and release into the media environment were evaluated using an ELISA sandwich technique. […] TNF-α cytokine release was selected in the experiments described herein because it is the common proinflammatory cytokine produced by Mφs as well as DCs. However, other inflammation-associated cytokines can also be measured.

THP-1 monocytes = assay: M1/M2 macrophage marker expression in THP-1 monocytes cultured on silk films functionalized with macrophage-skewing agent; type: cell-based, human
primary macrophages [3] = assay: RT-PCR gene expression (TNF-α, IL-1RA, IL-10) of primary macrophages on SP0.5 particles; type: cell-based, human; settings: 1 day
primary dendritic cells [4] = assay: TNF-α release (ELISA) from primary dendritic cells on SP0.5 particles; type: cell-based, human; settings: various concentrations, both time points
THP1 macrophages [5] = test system: THP1 macrophages
Description: The number of cells was determined, e.g., by counting the cells at the beginning of the experiment and by using the alamar blue method after the seeding. On the day the cells were seeded at the appropriate number, phorbo112-myristate 13-acetate (PMA) was added to the media at a final concentration of about 100 ng/ml to differentiate the THP-1 monocytes into THP-1 macrophages.

primary dendritic cells [6] = assay: RT-PCR gene expression (IL-1β, IL-1RA, IL-8) of primary dendritic cells on SP0.5 particles; type: cell-based, human
primary macrophages [7] = assay: TNF-α release (ELISA) from primary macrophages on SP0.5 particles; type: cell-based, human; settings: dexamethasone ~25 to ~1.5625 μg/ml both time points; simvastatin about 250 to about 31.25 μg/ml at 1 day; nicotine either time point
[8] = Release of INF-γ from INF-γ embedded silk films (ELISA); type: physicochemical
Description: An ELISA was run to show the release rate of INF-γ from the silk films. The films were made from a silk fibroin solution of about 10 μg/m and 0.2 ml used per film (for a total loading of about 2 μg INF-γ). Within one hour a large amount of INF-γ is released but as a percentage of the total loading it is small and by 4 days more INF-γ is released showing that there is a continued or constant release of INF-γ. While the levels of INF-γ release are low, they are physiologically relevant.
FIG. 23 is a line graph showing the release rate of INF-γ from the silk films. The silk films were made from a silk solution at a concentration of about 10 μg/m and about 0.2 ml of the silk solution was used per film (with a loading of about 2 μg INF-γ). As shown in the table of FIG. 23, within one hour an amount of about […] INF-γ was released, which is about 0.02% of the total loading. […] While the levels of INF-γ release appeared to be low, the level is physiologically relevant.

[9] = about 10 μg/ml INF-γ in silk films

C[C@@H]1C[C@H]2[C@@H]3CCC4=CC(=O)C=C[C@]4(C)[C@@]3(F)[C@@H](O)C[C@]2(C)[C@@]1(O)C(=O)CO [dexamethasone]
IL-10 fold change in expression (relative to positive control) (THP1 macrophages [1]; 1 day, dexamethasone about 12.5 μg/ml): above 1 fold

CCC(C)(C)C(=O)O[C@H]1C[C@@H](C)C=C2C=C[C@H](C)[C@H](CC[C@@H]3C[C@@H](O)CC(=O)O3)[C@H]21 [simvastatin]
TNF-α release (THP1 macrophages [2]; simvastatin ~31.5 μg/ml and less): about 0.07 pg/ml

INF-γ: interferon-gamma loaded or embedded in silk films
CCL-18 (M2 macrophage marker) (THP-1 monocytes; [9]): upregulated
CD206 (M2 macrophage marker) relative to control (THP-1 monocytes; [9]): strongly downregulated
markers of M1 macrophage (CCL3 and CCR7) (THP-1 monocytes; about 10 μg/ml INF-γ loaded or embedded in silk films): up-regulated

CN1CCCC1c1cccnc1 (centres unmarked) [nicotine]
TNF-α gene expression (primary macrophages [3]; dexamethasone, simvastatin 125 to 31.25 μg/ml, nicotine 187.5 and 93.75 μg/ml): downregulated
IL-10 gene expression (primary macrophages [3]; dexamethasone, simvastatin, nicotine about 750 to about 275 μg/ml): high
IL-1RA gene expression (primary macrophages [3]; simvastatin, nicotine about 750 to about 275 μg/ml): high
TNF-α release compared to LPS control (primary dendritic cells [4]): the same as observed with macrophages
cytotoxicity (in words) (THP1 macrophages [5]; dexamethasone ~100 and ~50 μg/ml, simvastatin 250 μg/ml, nicotine 3 mg/ml, both time points): cytotoxic
cytotoxicity (in words) (THP1 macrophages [5]; nicotine ~1.5 mg/ml, 3 days): cytotoxic
effect on cell number versus positive and negative controls (THP1 macrophages [5]; non-cytotoxic nicotine concentrations): proliferative effect
IL-10 gene expression (THP1 macrophages [1]; 1 day, dexamethasone vs media control, simvastatin vs positive control, nicotine vs controls): unregulated
TGF-β gene expression (THP1 macrophages [1]; 3 days, dexamethasone all concentrations except ~25 μg/ml, nicotine compared to same concentrations at 1 day): downregulated
TNF-α gene expression (THP1 macrophages [1]; 3 days, dexamethasone vs LPS control, nicotine vs negative control): higher than the negative control
IL-10 gene expression (THP1 macrophages [1]; 3 days, nicotine compared to same concentrations at 1 day): downregulated
gene expression profile (anti-inflammatory or not) (primary dendritic cells [6]; 1 day, dexamethasone various concentrations, simvastatin ~62.5 μg/ml, nicotine about 46.87 to about 187.5 μg/ml): no anti-inflammatory profile
gene expression profile (anti-inflammatory or not) (primary dendritic cells [6]; 5 days): no anti-inflammatory profile
TNF-α release compared to LPS control (primary macrophages [7]): no significant decrease
TNF-α release compared to positive control (LPS), high concentrations (THP1 macrophages [2]; dexamethasone ~100 and ~50 μg/ml, simvastatin higher concentration, nicotine above 750 μg/ml, both time points): more TNF-α was released than the positive control

B1: INF-γ: interferon-gamma loaded or embedded in silk films (protein, UniProt P01579 24-161, looked up)
Interferon gamma: QDPYVKEAENLKKYFNAGHSDVADNGTLFLGILKNWKEESDRKIMQSQIVSFYFKLFKNFKDDQSIQKSVETIKEDMNVKFFNSNKKKRDDFEKLTNYSVTDLNVQRKAIHELIQVMAELSPAAKTGKRKRSQMLFRG
continued INF-γ release ([8]; by day 4): More INF-γ was released
INF-γ released as share of the total loading ([8]; within one hour): about 0.02%
amount of INF-γ released from silk film ([8]; within one hour, loading about 2 μg INF-γ per film): about 400 μg/ml
